According to US20090124672A1 (priority 2007, published 2009):

Columns and labels:
[1] = target: T1, hALDH2 (recombinant human mitochondria ALDH) (Homo sapiens, UniProt P05091); assay: ALDH2 inhibition assay (NADH formation, formaldehyde substrate); type: biochemical; details: for inhibition at 1 µM: read-out: hALDH2 inhibition (IC50 hALDH2 column)
T1 sequence (P05091 18-517): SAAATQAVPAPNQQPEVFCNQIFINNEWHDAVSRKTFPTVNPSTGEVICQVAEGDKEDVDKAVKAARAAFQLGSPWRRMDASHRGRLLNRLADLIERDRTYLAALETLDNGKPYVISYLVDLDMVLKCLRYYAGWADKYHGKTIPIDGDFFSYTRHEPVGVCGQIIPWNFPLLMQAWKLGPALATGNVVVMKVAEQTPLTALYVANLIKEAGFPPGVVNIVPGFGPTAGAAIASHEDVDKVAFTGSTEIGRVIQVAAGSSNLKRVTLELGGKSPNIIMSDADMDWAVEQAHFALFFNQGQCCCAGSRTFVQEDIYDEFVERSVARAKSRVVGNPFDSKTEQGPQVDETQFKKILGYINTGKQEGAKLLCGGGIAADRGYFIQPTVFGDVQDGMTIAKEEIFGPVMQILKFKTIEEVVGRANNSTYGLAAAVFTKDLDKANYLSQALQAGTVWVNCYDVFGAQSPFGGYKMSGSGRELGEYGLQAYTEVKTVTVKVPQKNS
Protocol: ALDH2 inhibition assays were performed in sodium phosphate buffer (50 mM, pH 7.4) containing 1.2 mM NAD^+ (Sigma N7004), 1 nM hALDH2 (recombinant human mitochondria ALDH), various concentrations of test compounds (from 0.03 nM to 1000 nM), and 0.15 mM freshly prepared formaldehyde solution (Ladd Research 20295). Reactions were initiated by the addition of formaldehyde and rates were recorded by monitoring NADH formation in a temperature controlled (25° C.) FluoroMax-2 Fluorimeter with excitation and emission wavelengths set at 340 and 460 nm, respectively. […] Normally, IC50 values were determined by fitting concentration-inhibition data to sigmoidal dose-response curves with two-floating parameters: IC50 and Hill coefficient. When tight binding situation was suspected, apparent Ki values were estimated by fitting dose-response data to Morrison's equation [Methods in Enzymology 63, 437-467, 1979].

hMAO-B = target: T2, hMAO-B (Homo sapiens, UniProt P27338); assay: MAO-B inhibition assay (Amplex Red, horseradish peroxidase-coupled); type: biochemical; details: for inhibition at 10 µM: read-out: hMAO-B inhibition (IC50 hMAO-B); for inhibition at 10 µM / hMAO-B inhibition (IC50 hMAO-B): at 10 μM
T2 construct: purchased Sigma M7441
T2 sequence (P27338 1-520): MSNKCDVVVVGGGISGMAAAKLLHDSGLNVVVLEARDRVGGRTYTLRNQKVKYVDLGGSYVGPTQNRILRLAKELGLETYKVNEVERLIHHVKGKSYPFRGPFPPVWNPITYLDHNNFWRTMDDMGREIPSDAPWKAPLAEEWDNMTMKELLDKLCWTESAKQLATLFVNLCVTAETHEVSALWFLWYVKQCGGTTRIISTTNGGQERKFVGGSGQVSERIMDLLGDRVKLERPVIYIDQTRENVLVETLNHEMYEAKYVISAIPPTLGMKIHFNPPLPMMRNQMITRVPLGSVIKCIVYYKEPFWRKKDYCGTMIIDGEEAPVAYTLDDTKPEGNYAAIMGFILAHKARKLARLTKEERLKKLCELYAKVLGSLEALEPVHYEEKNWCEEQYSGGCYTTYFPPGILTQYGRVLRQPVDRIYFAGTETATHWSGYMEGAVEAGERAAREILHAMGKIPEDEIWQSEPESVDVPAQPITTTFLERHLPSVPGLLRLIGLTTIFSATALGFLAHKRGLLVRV
Protocol: MAO-A (Sigma M7316) and MAO-B (Sigma M7441) inhibition assays were conducted in 96-well micro-plates according to the method described by Zhou et al. [Analytical Biochemistry 253, 169-174, 1997]. Both assays were performed in potassium phosphate buffer (0.1 M, pH 7.5) containing 0.5 mM tyramine (Sigma T2879), 0.12 mM N-acetyl-3,7-dihydrophenoxazine (Amplex Red, Invitrogen A12222), 1.2 unit/ml horseradish peroxidase (Sigma P2088), 0.6 unit/ml MAO-A or 2.5 unit/ml MAO-B, and various concentrations of test compounds (0.1 nM to 10 uM). Reactions were initiated by the addition of a pre-mixed solution of tyramine, horseradish peroxidase and Amplex Red, and were allowed to proceed at 37° C. for 30 min. Enzyme activities were determined by measuring absorbance at 570 nm (SpectralMax Plate reader), absorbance of oxidized Amplex Red generated by this horseradish peroxidase-coupled reaction. Nonspecifically formed products were determined in the presence of 2 and 10 µM clorgyline and deprenyl for MAO-A and MAO-B, respectively. IC50 values were determined by fitting concentration-inhibition data to sigmoidal dose-response curves with two-floating parameters: IC50 and Hill coefficient.

| IC50 [1] | inhibition at 10 µM (hMAO-B) | hMAO-B inhibition (IC50 hMAO-B) (hMAO-B) | IC50 (hMAO-B) | inhibition at 1 µM [1] | Molecule |
| --- | --- | --- | --- | --- | --- |
| 5 nM | 34% | – | – | – | COC(=O)c1cnc(COc2ccc3c(=O)c(-c4ccc(O)cc4)coc3c2)o1 [PT-47, methyl 2-{[3-(4-hydroxyphenyl)-4-oxochromen-7-yloxy]methyl}-1,3-oxazole-5-carboxylate] |
| 11 nM | 25% | – | – | – | O=c1c(-c2ccc(O)cc2)coc2cc(OCc3nnc(-c4cccc(F)c4)o3)ccc12 [PT-58, 7-{[5-(3-fluorophenyl)(1,3,4-oxadiazol-2-yl)]methoxy}-3-(4-hydroxyphenyl)chromen-4-one] |
| 16 nM | 19% | 19% | – | – | O=c1c(-c2ccc(O)cc2)coc2cc(OC[C@H](O)CNCc3cccc(C(F)(F)F)c3)ccc12 [PT-53, 7-[(2R)-2-hydroxy-3-({[3-(trifluoromethyl)phenyl]methyl}amino)propoxy]-3-(4-hydroxyphenyl)chromen-4-one] |
| 150 nM | – | – | 300 nM | – | COC(=O)c1cccc(COc2ccc3c(=O)c(-c4ccc(O)cc4)coc3c2)c1 [PT-33, methyl 3-{[3-(4-hydroxyphenyl)-4-oxochromen-7-yloxy]methyl}benzoate] |
| 48 nM | – | 18% | – | – | 7-({5-[3-fluoro-5-(trifluoromethyl)phenyl](1,2,4-oxadiazol-3-yl)}ethoxy)-3-(4-hydroxyphenyl)chromen-4-one [PT-79] |
| – | 16% | – | – | 25% | COc1ccc(-c2coc3cc(OCc4sc(-c5ccc(C(F)(F)F)cc5)nc4C)ccc3c2=O)cn1 [PT-67, 3-(6-methoxy(3-pyridyl))-7-({4-methyl-2-[4-(trifluoromethyl)phenyl](1,3-thiazol-5-yl)}methoxy)chromen-4-one] |
| 8 nM | 14% | 14% | – | – | O=c1c(-c2ccc(O)cc2)coc2cc(OC[C@H](O)CNCc3cc(F)cc(F)c3)ccc12 [PT-55, 7-((2R)-3-{[(3,5-difluorophenyl)methyl]amino}-2-hydroxypropoxy)-3-(4-hydroxyphenyl)chromen-4-one] |
| 17 nM | – | 30% | – | – | 3-(4-hydroxyphenyl)-7-[(5-(3-pyridyl)(1,3,4-oxadiazol-2-yl))ethoxy]chromen-4-one [PT-113] |
| – | 11% | – | – | 8% | CS(=O)(=O)c1ccc(-c2coc3cc(OCc4noc(-c5cc(F)cc(C(F)(F)F)c5)n4)ccc3c2=O)cc1 [PT-71, 7-({5-[3-fluoro-5-(trifluoromethyl)phenyl](1,2,4-oxadiazol-3-yl)}methoxy)-3-[4-(methylsulfonyl)phenyl]chromen-4-one] |
| 42 nM | 13% | – | – | – | O=c1c(-c2ccc(O)cc2)coc2cc(OCc3nnc(-c4cccc(C(F)(F)F)c4)o3)ccc12 [PT-60, 3-(4-hydroxyphenyl)-7-({5-[3-(trifluoromethyl)phenyl](1,3,4-oxadiazol-2-yl)}methoxy)chromen-4-one] |
| – | 10% | – | – | 18% | CC(=O)c1cccc(-c2coc3cc(OCc4noc(-c5cc(F)cc(C(F)(F)F)c5)n4)ccc3c2=O)c1 [PT-73, 3-(3-acetylphenyl)-7-({5-[3-fluoro-5-(trifluoromethyl)phenyl](1,2,4-oxadiazol-3-yl)}methoxy)chromen-4-one] |
| 8 nM | 29% | – | – | – | C[C@@H](NCC(=O)COc1ccc2c(=O)c(-c3ccc(O)cc3)coc2c1)c1ccc(F)cc1 [PT-56, 7-(3-{[(1R)-1-(4-fluorophenyl)ethyl]amino}-2-oxopropoxy)-3-(4-hydroxyphenyl)chromen-4-one] |
| 18 nM | – | 21% | – | – | 3-(4-hydroxyphenyl)-7-(2-{4-[3-(trifluoromethyl)phenyl]piperazinyl}ethoxy)chromen-4-one [PT-124] |
| 0.4 nM | 12% | – | – | – | O=c1c(-c2ccc(O)cc2)coc2cc(OCc3nnc(-c4ccc(F)cc4)o3)ccc12 [PT-81, 7-{[5-(4-fluorophenyl)(1,3,4-oxadiazol-2-yl)]methoxy}-3-(4-hydroxyphenyl)chromen-4-one] |
| 96 nM | 17% | – | – | – | O=c1c(-c2ccc(O)cc2)coc2cc(OCc3cnc(-c4ccccc4)o3)ccc12 [PT-61, 3-(4-hydroxyphenyl)-7-[(2-phenyl(1,3-oxazol-5-yl))methoxy]chromen-4-one] |
| – | 8% | – | – | 43% | O=c1c(-c2ccc(O)cc2)coc2cc(OCc3nnc(-c4ccccc4Cl)s3)ccc12 [PT-64, 7-{[5-(2-chlorophenyl)(1,3,4-thiadiazol-2-yl)]methoxy}-3-(4-hydroxyphenyl)chromen-4-one] |
| 20 nM | 27% | 27% | – | – | O=c1c(-c2ccc(O)cc2)coc2cc(OCCCc3ccccc3)ccc12 [PT-57, 3-(4-hydroxyphenyl)-7-(3-phenylpropoxy)chromen-4-one] |
| – | 14% | – | – | 33% | N#Cc1ccc(-c2coc3cc(OCc4nnc(-c5cc(F)cc(C(F)(F)F)c5)o4)ccc3c2=O)cc1 [PT-68, 4-[7-({5-[5-fluoro-3-(trifluoromethyl)phenyl](1,3,4-oxadiazol-2-yl)}methoxy)-4-oxochromen-3-yl]benzenecarbonitrile] |
| 14 nM | 26% | – | – | – | O=c1c(-c2ccc(O)cc2)coc2cc(OC[C@H](O)Cc3ccccc3)ccc12 [PT-109, 7-((2R)-2-hydroxy-3-phenylpropoxy)-3-(4-hydroxyphenyl)chromen-4-one] |
| 98 nM | 7% | 7% | – | – | O=c1c(-c2ccc(O)cc2)coc2cc(OCc3cc(-c4cccc(C(F)(F)F)c4)on3)ccc12 [PT-45, 3-(4-hydroxyphenyl)-7-({5-[3-(trifluoromethyl)phenyl]isoxazol-3-yl}methoxy)chromen-4-one] |
| 4 nM | – | – | – | – | N#Cc1cccc(COc2ccc3c(=O)c(-c4ccc(O)cc4)coc3c2)c1 [PT-25, 3-{[3-(4-hydroxyphenyl)-4-oxochromen-7-yloxy]methyl}benzenecarbonitrile] |
| 276 nM | – | – | – | – | CS(=O)(=O)Nc1ccc(-c2coc3cc(OCc4nnc(-c5ccc(F)cc5)o4)ccc3c2=O)cc1 [PT-120, 7-{[5-(4-fluorophenyl)(1,3,4-oxadiazol-2-yl)]methoxy}-3-{4-[(methylsulfonyl)amino]-phenyl}chromen-4-one] |
| 11 nM | – | – | – | – | Nc1cccc(-c2nnc(COc3ccc4c(=O)c(-c5ccc(O)cc5)coc4c3)o2)c1 [PT-121, 7-{[5-(3-aminophenyl)(1,3,4-oxadiazol-2-yl)]methoxy}-3-(4-hydroxyphenyl)chromen-4-one] |
| 170 nM | – | – | – | – | O=C(O)c1ccc(COc2ccc3c(=O)c(-c4ccc(O)cc4)coc3c2)cc1 [PT-36, 4-{[3-(4-hydroxyphenyl)-4-oxochromen-7-yloxy]methyl}benzoic acid] |
| 4 nM | – | – | – | – | O=c1c(-c2ccc(O)cc2)coc2cc(OCc3nnc(-c4ccccc4Cl)o3)ccc12 [PT-80, 7-{[5-(2-chlorophenyl)(1,3,4-oxadiazol-2-yl)]methoxy}-3-(4-hydroxyphenyl)chromen-4-one] |
